Results as given in article PMC5514153, “Targeting PTPRZ inhibits stem cell-like properties and tumorigenicity in glioblastoma cells” (Scientific Reports, 2017).

Key:
hPTPN6 = molecular target: T1, hPTPN6 (Homo sapiens, UniProt P29350); assay: In vitro PTPase assay (DiFMUP), PTPN6; assay type: biochemical; conditions: 60-min preincubation
T1 construct: the catalytic domains of PTPN1 and PTPN6 were expressed as glutathione-S-transferase (GST) fusion proteins; GST (N); made in house; host or cells: Escherichia coli BL21
T1 sequence (P29350 244-515 limits assumed): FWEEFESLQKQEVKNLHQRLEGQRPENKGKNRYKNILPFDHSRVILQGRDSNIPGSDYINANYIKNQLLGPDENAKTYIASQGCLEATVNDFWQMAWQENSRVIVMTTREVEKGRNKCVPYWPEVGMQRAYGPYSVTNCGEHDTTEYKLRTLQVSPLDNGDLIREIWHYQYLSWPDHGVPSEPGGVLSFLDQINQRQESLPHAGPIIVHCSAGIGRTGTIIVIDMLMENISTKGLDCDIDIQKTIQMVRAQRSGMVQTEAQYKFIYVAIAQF
Experimental: Figure 4 NAZ2329, an allosteric inhibitor of R5 RPTP subfamily members. (A) Structure of NAZ2329. (B) Effect of preincubation of NAZ2329 on its inhibitory activity against PTPRZ. Recombinant human PTPRZ1 enzyme (the whole intracellular region) was premixed with NAZ2329 for the indicated times and followed by addition of a fluorogenic DiFMUP (non-specific PTP substrate, 6,8-difluoro-4-methylumbiliferyl phosphate) to measure PTP inhibitory activity. (C) Time dependence. The PTPRZ1 enzyme was added to the inhibitor–substrate mixture, and the inhibitory activity was determined at each time point relative to the vehicle control. (D) Reversibility of inhibition. […] The mixture was then 20-fold diluted, and recovered PTP activity was expressed as the relative activity compared with the vehicle-treated enzyme. […] PTPRZ1 enzymes were preincubated with NAZ2329 for 60 min, and the PTP activity was measured using DiFMUP. […]
Recombinant proteins corresponding to the entire intracellular regions (ICRs) of PTPRZ1, PTPRA, and PTPRM were expressed using a baculovirus-silkworm expression system, and purified as described. The ICRs of PTPRG, PTPRS, and PTPRB and the catalytic domains of PTPN1 and PTPN6 were expressed as glutathione-S-transferase (GST) fusion proteins from each pGEX plasmid in Escherichia coli strain BL21 (ref. [6]). […]

[1] = molecular target: T2, human PTPRZ1 (whole intracellular region, D1+D2) (Homo sapiens, UniProt P23471); assay: In vitro PTPase assay (DiFMUP), PTPRZ1 whole intracellular region; assay type: biochemical
T2 construct: Recombinant proteins corresponding to the entire intracellular regions (ICRs) of PTPRZ1, PTPRA, and PTPRM; made in house; host or cells: baculovirus-silkworm expression system
Experimental: Figure 4 NAZ2329, an allosteric inhibitor of R5 RPTP subfamily members. (A) Structure of NAZ2329. (B) Effect of preincubation of NAZ2329 on its inhibitory activity against PTPRZ. Recombinant human PTPRZ1 enzyme (the whole intracellular region) was premixed with NAZ2329 for the indicated times and followed by addition of a fluorogenic DiFMUP (non-specific PTP substrate, 6,8-difluoro-4-methylumbiliferyl phosphate) to measure PTP inhibitory activity. (C) Time dependence. The PTPRZ1 enzyme was added to the inhibitor–substrate mixture, and the inhibitory activity was determined at each time point relative to the vehicle control. (D) Reversibility of inhibition. PTPRZ1 enzymes were preincubated with NAZ2329 at the indicated concentrations for 30 min. The mixture was then 20-fold diluted, and recovered PTP activity was expressed as the relative activity compared with the vehicle-treated enzyme. (E) Lineweaver-Burk plot analysis. PTPRZ1 enzymes were preincubated with NAZ2329 for 60 min, and the PTP activity was measured using DiFMUP. (F) Concentration-inhibition curves of NAZ2329 for representative PTP members, including human PTPRZ and PTPRG (another R5 RPTP subfamily member), human PTPRS (R2A subfamily), human PTPRM (R2B subfamily), mouse PTPRB (R3 subfamily), human PTPRA (R4 subfamily), human PTPN1 (non-transmembrane PTP, NT1 subfamily), and human PTPN6 (NT2 subfamily), were generated. Assays were performed using DiFMUP. IC50 values obtained are shown in the inset. Data represent the averages of two or three separate experiments. TEXT PRINTED IN THE PICTURE: (F) NAZ2329: IC50 (μM): hPTPRZ1 7.5; IC50 (μM): hPTPRG 4.8; IC50 (μM): hPTPRA 35.7; IC50 (μM): hPTPRM 56.7; IC50 (μM): hPTPRS 23.7; IC50 (μM): mPTPRB 35.4; IC50 (μM): hPTPN6 15.2; IC50 (μM): hPTPN1 14.5
Recombinant proteins corresponding to the entire intracellular regions (ICRs) of PTPRZ1, PTPRA, and PTPRM were expressed using a baculovirus-silkworm expression system, and purified as described. The ICRs of PTPRG, PTPRS, and PTPRB and the catalytic domains of PTPN1 and PTPN6 were expressed as glutathione-S-transferase (GST) fusion proteins from each pGEX plasmid in Escherichia coli strain BL21 (ref. [6]). GST fusion proteins were purified by glutathione affinity chromatography as described. Chondroitinase ABC (chABC) was purchased from Sigma-Aldrich (catalog #C3667). Anti-PTPRZ-S, rabbit polyclonal antibodies against the extracellular region of PTPRZ was described previously (ref. [44]). The following are the specificities and sources of the commercially available antibodies used in the present study: Anti-RPTPβ (a monoclonal antibody against the intracellular domain of PTPRZ1 receptors, #610179, BD Biosciences), anti-SOX2 (#ab97959, Abcam), anti-POU3F2 (#12137, Cell Signaling), anti-OLIG2 (#AB9610, Millipore), anti-SALL2 (#12679–1-AP, Proteintech Group), anti-GAPDH (#ab9482, Abcam) anti-phosphotyrosine (PY20; #ab16389, Abcam), and anti-pY118-paxillin (#2541, Cell Signaling), mouse anti-paxillin antibody (#610569, BD Bioscience), anti-MBP (#sc-13914, Santa Cruz Biotechnology), and anti-NG2 proteoglycan (#AB5320, Millipore). […]

T2 sequence (P23471 1663-2315 limits assumed): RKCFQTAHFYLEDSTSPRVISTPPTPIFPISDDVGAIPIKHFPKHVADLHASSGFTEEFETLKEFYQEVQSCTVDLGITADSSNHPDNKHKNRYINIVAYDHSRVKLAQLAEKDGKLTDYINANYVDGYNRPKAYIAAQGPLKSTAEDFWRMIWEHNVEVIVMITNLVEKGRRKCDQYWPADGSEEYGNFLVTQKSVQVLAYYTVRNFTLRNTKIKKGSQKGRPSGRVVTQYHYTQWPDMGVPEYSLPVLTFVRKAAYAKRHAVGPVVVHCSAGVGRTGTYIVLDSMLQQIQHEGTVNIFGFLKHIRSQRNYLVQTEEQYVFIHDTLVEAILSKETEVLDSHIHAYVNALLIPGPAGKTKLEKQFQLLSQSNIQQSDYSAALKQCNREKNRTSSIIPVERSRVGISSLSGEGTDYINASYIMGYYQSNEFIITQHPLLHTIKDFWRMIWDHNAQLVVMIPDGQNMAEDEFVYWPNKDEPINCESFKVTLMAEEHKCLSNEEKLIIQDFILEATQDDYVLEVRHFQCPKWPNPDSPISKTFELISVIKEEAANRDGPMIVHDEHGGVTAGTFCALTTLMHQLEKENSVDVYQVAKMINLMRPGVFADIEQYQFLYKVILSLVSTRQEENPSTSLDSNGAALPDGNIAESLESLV

IC50 (hPTPN6): 15.2 µM
reversibility: enzymatic activity after 20-fold dilution of enzyme-compound mixture ([1]; 30 min preincubation, then 20-fold dilution): fully recovered to the control level
type of inhibition (Lineweaver-Burk plot) ([1]; 60 min preincubation, DiFMUP): noncompetitive-type inhibition
IC50 ([1]; whole intracellular region, DiFMUP, 60-min preincubation, read-out: IC50 hPTPRZ1 (D1+D2)): 7.5 µM
SMILES: CCOc1ccc(C(F)(F)F)cc1CSc1ccsc1C(=O)NS(=O)(=O)c1ccccc1 [NAZ2329]
